The source of these data is patent EP0266640A2 (Euro-Celtique S.A., priority 1986, dated 1988).

SMILES strings stand for the structures.

The experiment deals with asthmatic patients. Put plainly: controlled triple-cross-over clinical study, body plethysmographic test of lung function (RAW, FEV1), with pulse and blood pressure. The experiment is classed as in vivo. How it is done: In a controlled triple-cross-over study, in a body phlethysmographic test of the lung function, the effectiveness of and tolerance to the individual substances compared to the combination were investigated.
The investigation was carried out on three in-patients with chronic-obstructive airway diseases.
The associated medication with dosing aerosols was reduced to a minimum and noted in a special test report. It was ensured that no aerosol was used at least eight hours prior to each lung function investigation.
The medication sequence was randomised, with a wash-out-phase of two days after each medication.
It was ensured that all the patients had received no xanthine 24 hours before the controlled investigation (lung function test and determination of reversibility).
The lung function (RAW and FEV₁) and the pulse of the patients were measured on the first and third day always at the same time of day, as shown in Fig. 3. On the third day of the investigation, after the final measurement of lung function, the reversibility was again determined, 15 minutes after inhalation of 400 microgram Fenoterol.

In the case of `Cn1c(=O)c2[nH]cnc2n(C)c1=O` [Theophylline, 1,3-dimethylxanthine], for the setting “third day, after inhalation of 400 microgram Fenoterol, 10 mg Nifedipine alone or 300 mg Theophylline alone twice daily”, the “remaining reversibility (further improvement by inhalation of the dosing aerosol)” value is “still left a considerable further improvement”.

Regarding `CC(Cc1ccc(O)cc1)NCC(O)c1cc(O)cc(O)c1` (stereo not shown) [Fenoterol], the “rise of FEV₁ mean-value (reversibility)” value (start of investigation, after inhalation of 400 microgram) is recorded as 45%. For the same compound, the FEV₁ mean-value entry (start of investigation, after inhalation of 400 microgram, baseline ca. 1,5 l) is “ca. 2.2 l”. Further, the “reduction of airway resistance (reversibility)” value (start of investigation, after inhalation of 400 microgram, referred to the initial value) is given as 50%.
